Data as given in patent US20030157182A1, “Pharmaceutical preparations and their manufacture” (priority 2000, published 2003).

Columns and labels:
[1] = Normalised Kurtosis of the particle size distribution (Microsoft Excel KURT function on Mastersizer classes); assay type: physicochemical; settings: for Normalised Kurtosis: particle size by volume, Mastersizer 2000 classes, 0 = mesokurtic normal distribution; for normalized Kurtosis: positive = narrow size distribution
Text: The normalized Kurtosis is defined in formula (2) above and can be derived for a given particle size distribution by using any of a number of widely available statistical software packages, for example, Microsoft Excel.
A large number of data points is required to provide an accurate analysis of the Kurtosis of a particle size distribution. Indeed a true Kurtosis value would require the exact size of every particle in a distribution.
(§1) Using the Malvern Mastersizer 2000 we have examined the particle size by volume of a range of materials. The Mastersizer 2000 utilises a log-normal scale for description of particle sizes. We have then examined the data statistically to determine normalized Kurtosis by copying the particle size data into Microsoft Excel and performing the “KURT” function according to the method given in Example 1. Kurtosis values for those materials are given in Table 1 along with volume median diameters. A mesokurtic normal distribution has a normalized Kurtosis value of zero.
(iv) The results shown in Table 2 were analysed using the KURT function of Microsoft Excel which gave the normalized Kurtosis value of 6.93.

[2] = Particle size distribution by volume, Malvern Mastersizer 2000; assay type: physicochemical; settings: for d(0.5): volume median diameter, μm
Text: as §1
(i) The active particles were suspended (using stirring and sonication) in cyclohexane with 0.1% lecithin. Sufficient active particles were used to ensure the necessary obscuration;
(ii) The suspension was placed in the wet cell of the Malvern Mastersizer 2000 and the particle size distribution was measured using an appropriate lens system;
(iii) The results were analysed using the proprietary software of the Mastersizer 2000 to produce the size distribution given in Table 2.

[3] = listed as paracetamol material according to the invention
[4] = listed as commercial grade of paracetamol

Row | Normalised Kurtosis [1] | normalized Kurtosis ([1]; listed as milled paracetamol) | volume median diameter / volume median particle size ([2]; listed as milled paracetamol) [μm] | d(0.5) [2] [µm] | normalized Kurtosis [1] | normalized Kurtosis [1, 3] | polydispersity of particle size distribution ([2]; FIG. 2, compared to the Sigma paracetamol starting material) | volume median diameter / volume median particle size [2, 3] [μm] | normalized Kurtosis [1, 4] | volume median diameter / volume median particle size [2, 4] [μm] | Compound
1 | −1.10 | −1.1 | 12 | 12 | – | – | – | – | – | – | CC(=O)Nc1ccc(O)cc1 [Paracetamol Milled Sigma, Paracetamol]
2 | 6.93 | – | – | 21 | 6.93 | 6.9 | much reduced polydispersity | 12 | – | – | CC(=O)Nc1ccc(O)cc1 [Paracetamol from Example 1, Paracetamol]
3 | −0.43 | – | – | 19 | – | – | – | – | −0.43 | 19 | CC(=O)Nc1ccc(O)cc1 [Sigma Paracetamol, Paracetamol]
